Laboratory results: ChEMBL document CHEMBL1145485, “Immunomodulatory peptide from cystatin, a natural cysteine protease inhibitor, against leishmaniasis as a model macrophage disease” (Antimicrob Agents Chemother, 2007)
The source made the active and inactive calls. The rule behind the calls is not given here.

What was measured:
[1] = system: Macrophage; test: Reversal of increase in NO release in BALB/c mouse peritoneal macrophages upto 1 uM in presence of anti-peptide antibody; assay type: functional, cell-based
[2] = system: Macrophage; test: Increase in NO release in BALB/c mouse peritoneal macrophages upto 1 uM; assay type: functional, cell-based
[3] = system: Leishmania donovani; test: Antileishmanial activity against Leishmania donovani MHOM/IN/1983 infected BALB/c mouse peritoneal macrophages in presence of IFN-gamma; assay type: functional, organism-based
[4] = system: Leishmania donovani; test: Reversal of antileishmanial activity against Leishmania donovani MHOM/IN/1983 infected BALB/c mouse peritoneal macrophages in presence of 2-amino-5,6-dihydro-6-methyl-4H-1,3-thiazine; assay type: functional, organism-based
[5] = system: Leishmania donovani; test: Reversal of antileishmanial activity against Leishmania donovani MHOM/IN/1983 infected BALB/c mouse peritoneal macrophages in presence of anti-peptide antibody; assay type: functional, organism-based
[6] = system: Leishmania donovani; test: Antileishmanial activity against Leishmania donovani AG83 infected BALB/c mouse assessed as reduction of spleen burden at 0.5 mg/kg/day, iv in presence of IFN-gamma after 45 days; assay type: functional; design: scale not given: the % may be the effect or the level left
[7] = system: Leishmania donovani; test: Antileishmanial activity against Leishmania donovani AG83 infected BALB/c mouse assessed as reduction of liver burden at 0.5 mg/kg/day, iv in presence of IFN-gamma after 45 days; assay type: functional; design: scale not given: the % may be the effect or the level left

With H-PVPVDENDEG-OH the Activity [1] was “Active”, the Activity [2] was “Active” and the IC50 [3] was 0.52 µg/mL. For the same substance, the Activity [4] was “Active”, the Activity [5] was “Active” and the Activity [6] was 95%. The Activity [7] was 93%.
